The OPERA property sets (Mansouri et al. 2018)

Settings: not given
For O=C(O)c1ccc(Cl)cc1[N+](=O)[O-], the melting point was 144 °C. CCOC(=O)CCCCC(=O)OCC gave a boiling point of 245 °C, a log10 vapour pressure (mmHg) of -1.24 and a melting point of -19.8 °C. BrC(c1ccccc1)c1ccccc1 showed a melting point of 45 °C. With O=C(c1ccccc1)N1CCCCC1 the boiling point was 320 °C and the melting point was 49 °C. For CC(C)CN(CCO)CC(C)C, the boiling point was 214 °C. With Clc1ccncc1 the boiling point was 148 °C and the melting point was -43.5 °C. For CCCCl, the boiling point was 46.5 °C, the log10 Koa was 2.24 and the log10 vapour pressure (mmHg) was 2.54. For the same compound, the melting point was -123 °C. In the case of O=C(O)C(F)(F)C(F)(F)C(F)(F)C(F)(F)C(F)(F)C(F)(F)C(F)(F)C(F)(F)C(F)(F)C(F)(F)C(F)(F)F, the boiling point is reported as 249 °C, the melting point is reported as 108 °C and the ready biodegradability is reported as “not readily biodegradable”. OCC1c2ccccc2-c2ccccc21 gave a melting point of 106 °C. With COC(=O)C=C(C)C the boiling point was 136 °C. CCCCCCCCCCCC(=O)CCCCCCCCCCC gave a melting point of 70.2 °C. NC[C@H](O)C(=O)O gave a melting point of 235 °C. Work on CCn1cc(C(=O)O)c(=O)c2cnc(N3CCCC3)nc21 yielded a melting point of 315 °C. With C1CSC1 the boiling point was 95 °C, the log10 vapour pressure (mmHg) was 1.72 and the melting point was -73.2 °C. In the case of COc1cccc(OC)c1, the boiling point is reported as 218 °C, the melting point is reported as -52 °C and the ready biodegradability is reported as “readily biodegradable”. Compound c1ccc2c(c1)CCc1ccccc1N2C1CN2CCC1CC2 (centres undefined) has a melting point of 150 °C. In the case of CNCCCN, the ready biodegradability is reported as “readily biodegradable”. For CC1CNC(C)CN1 (centres undefined), the boiling point was 163 °C, the log10 vapour pressure (mmHg) was 0.422 and the melting point was 116 °C. With COc1ccccc1N=Nc1c(O)ccc2ccccc12 the melting point was 183 °C. Cc1cccc(O)c1O showed a boiling point of 241 °C and a melting point of 68 °C. F[Si](F)(F)c1ccccc1 gave a boiling point of 102 °C and a melting point of -18 °C. Work on C=C(C)CCO yielded a boiling point of 132 °C and a log10 vapour pressure (mmHg) of 0.551. Compound Clc1c(Cl)c(Cl)c2c(Cl)c(Cl)c(Cl)c(Cl)c2c1Cl has a log10 Koa of 11.1, a log10 Koc (L/kg) of 5.89 and a log10 vapour pressure (mmHg) of -7.96. The melting point was 198 °C. Work on C=C[C@H]1C[N@@]2CC[C@H]1C[C@H]2[C@H](O)c1ccnc2ccc(OC)cc12.Cl yielded a melting point of 159 °C. Compound Clc1cc2cccc(Cl)c2cc1Cl has a log10 Koa of 7.5. With Clc1cccc(Cl)c1-c1ccccc1 the log10 Henry constant (atm·m³/mol) was -3.64. COc1cc(CNC(=O)CCCC/C=C/C(C)C)ccc1O gave a melting point of 65 °C. Compound O=CC1CCC=CO1 (centres undefined) has a boiling point of 146 °C. With CCOP(=S)(OCC)Oc1ccc([N+](=O)[O-])cc1 the boiling point was 375 °C, the log10 Henry constant (atm·m³/mol) was -6.53 and the log10 Koc (L/kg) was 3.2. The log10 vapour pressure (mmHg) was -5.18 and the melting point was 6.1 °C. Work on CCCCCCCCC(=O)OC yielded a boiling point of 214 °C. CCCCCCCCCCCCCCCCCCCC1CCCCC1 gave a boiling point of 420 °C and a melting point of 45 °C. With CCOC(CN(C)C)OCC the boiling point was 170 °C. In the case of O=C(C1CCCCC1)N1CC(=O)N2CCc3ccccc3C2C1 (centres undefined), the melting point is reported as 136 °C. CC(C#N)c1ccccc1 (centres undefined) showed a boiling point of 231 °C. Cc1ccccc1CO[C@H]1C[C@]2(C(C)C)CC[C@@]1(C)O2 (single isomer, unassigned) showed a boiling point of 313 °C, a log10 Koc (L/kg) of 2.6 and a log10 vapour pressure (mmHg) of -4.12. Compound Clc1ccc(-c2ccc(Cl)c(Cl)c2Cl)c(Cl)c1 has a log10 Henry constant (atm·m³/mol) of -4.18. Work on C=CC(=O)OCCOC(=O)C=C yielded a log10 vapour pressure (mmHg) of -1.18. In the case of O=[N+]([O-])c1cncn1CCN1CCOCC1, the melting point is reported as 110 °C. Cc1occc(=O)c1O gave a melting point of 162 °C. In the case of Clc1ccc2ncccc2c1, the boiling point is reported as 263 °C and the melting point is reported as 43.8 °C. With CN(C)[C@@H]1C(O)=C(C(N)=O)C(=O)[C@@]2(O)C(O)=C3C(=O)c4c(O)cccc4[C@@](C)(O)[C@H]3C[C@@H]12.Cl the melting point was 222 °C. Compound COC(=O)C1(S(=O)(=O)c2ccc(Br)cc2)CCCC1 has a melting point of 104 °C. In the case of CCC(=O)CO, the boiling point is reported as 160 °C. Compound CCCB(CCC)CCC has a boiling point of 159 °C and a melting point of -56 °C. CCCCCCCCC(=O)OCCCCC gave a melting point of -27 °C. For CCOC(=O)CC(C)=O, the boiling point was 181 °C, the log10 vapour pressure (mmHg) was -0.108 and the melting point was -45 °C. C=CCN(CC=C)C(=O)C(Cl)Cl showed a log10 Koc (L/kg) of 1.6, a log10 vapour pressure (mmHg) of -2.22 and a melting point of 5.5 °C. Cc1ccccc1Oc1ccccc1[N+](=O)[O-] showed a melting point of 39.5 °C. For CC(C)N=C=O, the boiling point was 74.5 °C. In the case of CC(=O)[C@H]1CC[C@H]2[C@@H]3CC=C4C[C@@H](O)CC[C@]4(C)[C@H]3CC[C@]12C, the melting point is reported as 192 °C. Compound OCCCCl has a boiling point of 165 °C. For N#Cc1sc2c(=O)c3ccccc3c(=O)c=2sc1C#N, the log10 vapour pressure (mmHg) was -10.7, the melting point was 225 °C and the ready biodegradability was “not readily biodegradable”. Work on O=[N+]([O-])c1ccc(Cl)c(Cl)c1Cl yielded a melting point of 55.5 °C. In the case of FC(F)C(F)(F)F, the boiling point is reported as -48.5 °C, the log10 vapour pressure (mmHg) is reported as 4.02 and the melting point is reported as -103 °C. For CCCCCCCCCCCS, the boiling point was 257 °C and the melting point was -3 °C. In the case of Nc1ccc2c(c1)C(=O)c1ccccc1C2=O, the log10 vapour pressure (mmHg) is reported as -10.3, the melting point is reported as 304 °C and the ready biodegradability is reported as “not readily biodegradable”. Cc1c(C)c(C)c(C)c(C)c1C showed a boiling point of 263 °C, a log10 Koa of 6.31 and a log10 vapour pressure (mmHg) of -3.07. The melting point was 166 °C. Work on CC(C)(C1CCCCC1)C1CCCCC1 yielded a boiling point of 286 °C and a melting point of 15.6 °C. C[Si](C)(C)O[Si](C)(C)O[Si](C)(C)O[Si](C)(C)O[Si](C)(C)O[Si](C)(C)O[Si](C)(C)O[Si](C)(C)C showed a log10 vapour pressure (mmHg) of -2.5. Work on C#CCOc1ccc(N)cc1C(=O)NCCCC yielded a melting point of 84 °C. For CCCC(=O)C(C)CC (centres undefined), the boiling point was 154 °C. Compound CN(C)c1ccccc1Cl has a boiling point of 205 °C. With CC(=O)Nc1nc(=O)c2ncn(COCCOC(C)=O)c2[nH]1 the melting point was 204 °C. CCC(C)O (centres undefined) showed a log10 Henry constant (atm·m³/mol) of -5.04, a log10 Koa of 3.85 and a log10 vapour pressure (mmHg) of 1.26. For the same compound, the ready biodegradability was “readily biodegradable”. Compound Clc1cc(Cl)cc(Cl)c1 has a boiling point of 208 °C, a log10 Henry constant (atm·m³/mol) of -2.72 and a log10 Koa of 4.85. For the same compound, the log10 Koc (L/kg) was 2.85, the log10 vapour pressure (mmHg) was -0.62 and the melting point was 63.5 °C. For the same compound, the ready biodegradability was “not readily biodegradable”. Compound O=C(OCC(O)CO)c1ccccc1Nc1ccnc2cc(Cl)ccc12 (centres undefined) has a melting point of 170 °C. In the case of COC(=O)C1(S(=O)(=O)c2ccccc2)CC1, the melting point is reported as 74.5 °C. For Cc1cc(Cl)cc(Cl)c1Cl, the boiling point was 230 °C and the melting point was 45.5 °C. CCCCCCCCCCCCCCCC[n+]1ccccc1.[Br-] showed a melting point of 63 °C. With Cc1c(N)cc([N+](=O)[O-])cc1C(N)=O the melting point was 199 °C. With C[Si](C)(C)O[Si](C)(C)O[Si](C)(C)O[Si](C)(C)O[Si](C)(C)O[Si](C)(C)O[Si](C)(C)C the boiling point was 270 °C, the log10 vapour pressure (mmHg) was -2.5 and the melting point was -78 °C. CCCC(C)(C)C(C)=O showed a boiling point of 149 °C. Compound CC(=O)Nc1ccc2c(c1)Cc1ccccc1-2 has a boiling point of 303 °C, a log10 Koc (L/kg) of 3.14 and a melting point of 193 °C. For C#CC#C, the boiling point was 10.3 °C, the log10 vapour pressure (mmHg) was 3.12 and the melting point was -36.4 °C. In the case of CCCCCCCCCCCC(O)CC (centres undefined), the melting point is reported as 31.5 °C. CC(C)c1ccccc1 gave a boiling point of 152 °C, a log10 Henry constant (atm·m³/mol) of -1.94 and a log10 Koa of 3.98. The log10 biodegradation half-life (days) was 1.18, the log10 vapour pressure (mmHg) was 0.653 and the melting point was -96 °C. The ready biodegradability was “readily biodegradable”. CCCCOC(=O)C(Cl)Cl gave a boiling point of 194 °C. N#Cc1cccnc1 showed a boiling point of 207 °C, a log10 Henry constant (atm·m³/mol) of -6.56 and a log10 Koc (L/kg) of 1.56. For the same compound, the log10 vapour pressure (mmHg) was -0.529, the melting point was 51 °C and the ready biodegradability was “not readily biodegradable”. In the case of CNP(=O)(NC)Oc1ccccc1, the log10 Koc (L/kg) is reported as 1.51 and the melting point is reported as 102 °C. For O=C1NCCCN1, the melting point was 265 °C. Compound CC(C)(C)N(NC(=O)c1ccccc1)C(=O)c1ccccc1I has a melting point of 188 °C. With COc1ccc2cc3[n+](cc2c1OC)CCc1cc2c(cc1-3)OCO2 the melting point was 145 °C. With O=C(CCl)c1cccc([N+](=O)[O-])c1 the log10 vapour pressure (mmHg) was -5.06. In the case of Nc1cc([N+](=O)[O-])ccc1O, the melting point is reported as 144 °C. With O=Cc1c(Cl)cccc1Cl the melting point was 71.5 °C and the ready biodegradability was “not readily biodegradable”. With CCCC(C)(C)C(=O)Nc1ccc(Cl)cc1 the melting point was 87.5 °C. COC(F)(F)C(Cl)Cl gave a boiling point of 105 °C, a log10 Henry constant (atm·m³/mol) of -2.43 and a melting point of -35 °C. In the case of CCCCCCCCN(C)C, the boiling point is reported as 191 °C and the melting point is reported as -57 °C. With O=C1OC(=O)C2CC=CCC12 (centres undefined) the ready biodegradability was “not readily biodegradable”. Work on CC(C)(C)NC=O yielded a boiling point of 202 °C, a log10 vapour pressure (mmHg) of -0.569 and a melting point of 16 °C. Compound CC(C)C(C)CC(C)(C)C (centres undefined) has a boiling point of 148 °C and a log10 vapour pressure (mmHg) of 0.779. CCOC(=O)c1cnn(C)c1S(=O)(=O)NC(=O)Nc1nc(OC)cc(OC)n1 showed a melting point of 182 °C. Work on C1=CCNCC1 yielded a boiling point of 108 °C and a melting point of -48 °C.

Same assay, conditions: fish
In the case of CCOP(=S)(NC(C)CC)Oc1cc(C)ccc1[N+](=O)[O-] (centres undefined), the log10 BCF is reported as 2.46 and the log10 biotransformation half-life (days) is reported as -0.2. For Clc1c(Cl)c(Cl)c2c(Cl)c(Cl)c(Cl)c(Cl)c2c1Cl, the log10 BCF was 2.58 and the log10 biotransformation half-life (days) was 1.62. Work on CCOP(=S)(OCC)Oc1ccc([N+](=O)[O-])cc1 yielded a log10 BCF of 1.99 and a log10 biotransformation half-life (days) of -0.41. O=[N+]([O-])c1ccc(Cl)c(Cl)c1Cl gave a log10 BCF of 2.2 and a log10 biotransformation half-life (days) of -0.19. Clc1cc(Cl)cc(-c2ccccc2)c1 showed a log10 BCF of 3.77 and a log10 biotransformation half-life (days) of 1.11. For Nc1ccc2c(c1)C(=O)c1ccccc1C2=O, the log10 BCF was 1.51 and the log10 biotransformation half-life (days) was -1.06. With Clc1cc(Cl)cc(Cl)c1 the log10 BCF was 2.97 and the log10 biotransformation half-life (days) was 1.19. CC(C)c1ccccc1 showed a log10 BCF of 1.55.
